We go through 18 compounds from patent publication US20260068882A1, “ARTHROPOD CONTROLLING COMPOSITION” (Firmenich SA, priority 2019, published 2026).

In one experiment the test system is Aedes aegypti. As to the kind of experiment: In vitro Warm Body assay, mosquitoes landing on treated warm body. The class given is in vivo. On the procedure: The arthropod controlling effect according to the present invention is determined on mosquitoes using an adapted Warm Body assay as defined in Kröber T, Kessler S, Frei J, Bourquin M, Guerin P M. An in vitro assay for testing mosquito controlling compounds employing a warm body and carbon dioxide as a behavioral activator. J Am Mosq Control Assoc. 2010; 26:381-386.
The controlling effect according to the present invention is determined by testing the Warm Body assay against the yellow fever mosquito, Aedes aegypti Rockefeller strain. […] Observations of controlling efficacy were made on host-seeking females of uniform age, 5 to 10 days old selected as mentioned in the publication mentioned hereinabove. Tested hungry females had access to 10% sugar solution but were not blood-fed.
The published protocol has been adapted in not manually counting the landing mosquitoes but automatically using an automatic counting software, the switch from Anopheles gambiae to A. aegypti led to a decrease of mosquitoes' number placed in the tested cage due to the size difference (i.e. 30 mosquitoes instead of 50) and to an increase of lighting as A. aegypti is a diurnal mosquitoes (i.e. 150 lux instead of 4 lux).
The controlling effect according to the present invention is determined by testing the Warm Body assay against the yellow fever mosquito, A. aegypti Rockefeller strain. […] Observations of controlling efficacy were made on host-seeking females of uniform age, 5 to 10 days old selected as mentioned in the publication mentioned hereinabove. Tested hungry females had access to 10% sugar solution but were not blood-fed.
The controlling effect according to the present invention was assessed using an adapted Warm Body assay as defined in Kröber T, Kessler S, Frei J, Bourquin M, Guerin P M. An in vitro assay for testing mosquito controlling compounds employing a warm body and carbon dioxide as a behavioral activator. J Am Mosq Control Assoc. 2010; 26:381-386.
The published protocol has been adapted in not manually counting the landing mosquitoes but automatically using an automatic counting software, the switch from Anopheles gambiae to Aedes aegypti led to a decrease of mosquitoes' number placed in the tested cage due to the size difference (i.e. 30 mosquitoes instead of 50) and to an increase of lighting as Aedes aegypti is a diurnal mosquitoes (i.e. 150 lux instead of 4 lux).
In this in-vitro assay the number of A. aegypti landing on a warm body treated with the tested stimuli was measured in order to assess the repellency effect. Three replicates were carried on the three different doses: 0.0016%, 0.04% and 1% in ethanol, using 25 A. aegypti 10-12 days old females per cage.
In this in-vitro assay, the number of Aedes aegypti landing on a warm body treated with the tested stimuli was measured in order to assess the repellency effect. Three replicates were carried on the three different doses: 0.0016%, 0.04% and 1% in ethanol.
In this in-vitro assay, the number of Aedes aegypti landing on a warm body treated with the tested stimuli was measured in order to assess the repellency effect. One replicate was carried at different doses ranging from 0.0016% up to 1% in ethanol.

The next experiment has as its system Ixodes ricinus. As to the kind of experiment: In vitro Warm Plate Assay for ticks. The conditions noted are these: for pest or weed control at 0.0016 % / pest or weed control at 0.04 % / pest or weed control at 1 % / pest or weed control at 0.00032 % / pest or weed control at 0.008 % / pest or weed control at 0.2 %: Ixodes ricinus, read-out: percentage of ticks affected on the Warm Plate; for pest or weed control at 0.00032 %: 0.00032% (Table 10); for pest or weed control at 0.008 %: 0.008% (Table 10); for pest or weed control at 0.2 %: 0.2% (Table 10). Format: in vivo. On the procedure: Repellent efficacy of the different compounds was assessed against the sheep tick, Ixodes ricinus. I. ricinus is one of the recommended model organisms mentioned by the Guidance on the European Biological Products Regulation [Vol II, Efficacy-Assessment & Evaluation (Parts B+C), v. 3.0, April 2018]. Observations of repellent efficacy were made on last stage nymphs.
The repellent efficacy was assessed using the protocol of the in-vitro Warm Plate Assay as defined in Kröber T, Bourquin M, Guerin P M. A standardized in vivo and in vitro test method for evaluating tick repellents. Pesticide Biochemistry and Physiology. 2013; 107 (2): 160-168.].
The mean±SD number of ticks Ixodes ricinus walking down (affected), falling (affected) or walking-up (non affected) from the warm plate treated with ethanol, N,N-diethyl-3-methylbenzamide, (2,5-dimethyl-2,3-dihydro-1H-inden-2yl)methanol (Ingredient 2) or (2,4,6-trimethyl-2,3-dihydro-1H-inden-2-yl)methanol (Ingredient 1) diluted in ethanol at 0.4 mg/ml and 10 mg/mL was assessed on n groups of 12 ticks (n=2-5).
In this in-vitro assay, the percentage of ticks Ixodes ricinus affected by the stimulus loaded on the warm plate was measured in order to assess the repellency effect. Twelve ticks were assessed per concentrations that goes from 0.0016% up to 1% in ethanol.
Using the same in-vitro setup, the effect on ticks behavior (n≥12) of different stimuli diluted in ethanol at 20% (w/w) was assessed overtime.

Like-named read-outs stand apart in the source and are kept apart here.

With `Cc1ccc2c(c1)C(O)C(C)(CO)C2` (racemic) [2-(hydroxymethyl)-2,6-dimethyl-2,3-dihydro-1H-inden-1-ol], in the experiment with Aedes aegypti (0.0016%, 0.04% and 1% in ethanol (FIG. 10)), the “repellent effect with increasing amount of stimuli (in words)” value is on record as “low decrease of landing”.

On to `C[C@H]1O[C@@H]2c3ccccc3C[C@@H]2[C@@H](C)O1` (racemic) [(2RS,4RS,4ARS,9BSR)-2,4-dimethyl-4,4a,5,9b-tetrahydroindeno[1,2-d][1,3]dioxine], for which the “number of mosquitoes landed on the Warm Body” value (from here on “number of mosquitoes landed”) is listed as 17 in the experiment on Aedes aegypti (0.0016% in ethanol (Table 6)) and 13 in the experiment on Aedes aegypti (0.04% in ethanol (Table 6)).

As to `C[C@@H]1O[C@H](C)[C@@H]2Cc3ccccc3[C@@H]2O1` (racemic) [(2RS,4RS,4ASR,9BRS)-2,4-dimethyl-4,4a,5,9b-tetrahydroindeno[1,2-d][1,3]dioxine], the “number of mosquitoes landed” value came to 11 in the experiment with Aedes aegypti (0.0016% in ethanol (Table 6)), 6 in the experiment on Aedes aegypti (0.04% in ethanol (Table 6)) and 2 in the experiment on Aedes aegypti (1% in ethanol (Table 6)).

On to `C[C@@H]1OC[C@]2(C)Cc3ccccc3[C@@H]2O1` (racemic) [(2RS,4aSR,9bSR)-2,4a-dimethyl-4,4a,5,9b-tetrahydroindeno[1,2-d][1,3]dioxin], for which the “number of mosquitoes landed” value amounted to 34 in the experiment with Aedes aegypti (0.0016% in ethanol (Table 6)), 18 in the experiment with Aedes aegypti (0.04% in ethanol (Table 6)) and 6 in the experiment on Aedes aegypti (1% in ethanol (Table 6)).

With `Cc1ccc2c(c1)C[C@]1(C)COC(C)(C)O[C@H]21` (racemic) [(4aRS,9bRS)-2,2,4a,7-tetramethyl-4,4a,5,9b-tetrahydroindeno[1,2-d][1,3]dioxine], the “number of mosquitoes landed” value in the experiment on Aedes aegypti (0.0016% in ethanol (Table 6)) amounted to 51; in the experiment with Aedes aegypti (0.04% in ethanol (Table 6)), 44; with Aedes aegypti (1% in ethanol (Table 6)), 8.

As for `Cc1ccc2c(c1)[C@H]1OC(C)(C)OC[C@@]1(C)C2` (racemic) [(4aRS,9bRS)-2,2,4a,8-tetramethyl-4,4a,5,9b-tetrahydroindeno[1,2-d][1,3]dioxine], the “number of mosquitoes landed” value with Aedes aegypti (0.0016% in ethanol (Table 6)) came to 59; with Aedes aegypti (0.04% in ethanol (Table 6)), 12; in the experiment on Aedes aegypti (1% in ethanol (Table 6)), 11.

Consider `CC1(C)OC[C@@]2(C)Cc3ccccc3[C@H]2O1` (racemic) [(4aRS,9bRS)-2,2,4a-trimethyl-4,4a,5,9b-tetrahydroindeno[1,2-d][1,3]dioxine], for which the “number of mosquitoes landed” value in the experiment on Aedes aegypti (0.0016% in ethanol (Table 6)) is listed as 42; with Aedes aegypti (0.04% in ethanol (Table 6)), 47; with Aedes aegypti (1% in ethanol (Table 6)), 2.

As to `Cc1ccc2c(c1)C[C@]1(C)COCO[C@H]21` (racemic) [(4aRS,9bRS)-4a,7-dimethyl-4,4a,5,9b-tetrahydroindeno[1,2-d][1,3]dioxine], in the experiment on Aedes aegypti (0.0016% in ethanol (Table 6)), the “number of mosquitoes landed” value worked out at 17.

As to `Cc1ccc2c(c1)[C@H]1OCOC[C@@]1(C)C2` (racemic) [(4aRS,9bRS)-4a,8-dimethyl-4,4a,5,9b-tetrahydroindeno[1,2-d][1,3]dioxin], the “number of mosquitoes landed” value in the experiment on Aedes aegypti (0.0016% in ethanol (Table 6)) worked out at 34; in the experiment with Aedes aegypti (0.04% in ethanol (Table 6)), 20; in the experiment with Aedes aegypti (1% in ethanol (Table 6)), 5.

On to `CC1(C)OC[C@H]2Cc3ccccc3[C@H]2O1` (racemic) [(4aRS,9bSR)-2,2-dimethyl-4,4a,5,9b-tetrahydroindeno[1,2-d][1,3]dioxin], for which the “number of mosquitoes landed” value in the experiment on Aedes aegypti (0.0016% in ethanol (Table 6)) was found to be 30; in the experiment on Aedes aegypti (0.04% in ethanol (Table 6)), 1; in the experiment with Aedes aegypti (1% in ethanol (Table 6)), 0.

For `COC(=O)C1(C)Cc2ccc(C)cc2C1` (racemic) [(+−)-methyl 2,5-dimethyl-2,3-dihydro-1H-indene-2-carboxylate], the pest or weed control at 0.0016 % in the experiment on Ixodes ricinus (0.0016% (Table 11)) was found to be 7%. In the experiment with Ixodes ricinus (0.04% (Table 11)), the pest or weed control at 0.04 % worked out at 18%. Moreover, the pest or weed control at 1 % in the experiment with Ixodes ricinus (1% (Table 11)) worked out at 100%.

Turning to `COCOCC1(C)Cc2ccc(C)cc2C1` (stereo not shown) [2-((methoxymethoxy)methyl)-2,5-dimethyl-2,3-dihydro-1H-indene], in the experiment with Ixodes ricinus, the pest or weed control at 0.00032 % is 0%, the pest or weed control at 0.008 % came out at 0% and the pest or weed control at 0.2 % came to 54%. In the experiment on Ixodes ricinus (0.0016% (Table 10)), the pest or weed control at 0.0016 % was 17%. Also, the pest or weed control at 0.04 % in the experiment on Ixodes ricinus (0.04% (Table 10)) came out at 33%. Besides, the pest or weed control at 1 % with Ixodes ricinus (1% (Table 10)) amounted to 100%.

Regarding `COC(C)OCC1(C)Cc2ccc(C)cc2C1` (stereo not shown) [2-[(1-methoxyethoxy)methyl]-2,5-dimethylindane], in the experiment with Ixodes ricinus, the pest or weed control at 0.00032 % was 8%, the pest or weed control at 0.008 % is 21% and the pest or weed control at 0.2 % was 64%. Also, the pest or weed control at 0.0016 % in the experiment with Ixodes ricinus (0.0016% (Table 10)) is 0%. Also, the pest or weed control at 0.04 % with Ixodes ricinus (0.04% (Table 10)) was 33%. Further, in the experiment with Ixodes ricinus (1% (Table 10)), the pest or weed control at 1 % came to 100%.

Take `CC(C)(C)c1ccc2c(c1)CC1(COC1)C2` [5-(tert-butyl)-1,3-dihydrospiro[indene-2,3′-oxetane]]: the pest or weed control at 0.0016 % with Ixodes ricinus (0.0016% (Table 11)) is 0%. For the same compound, the pest or weed control at 0.04 % with Ixodes ricinus (0.04% (Table 11)) is 17%. In the experiment on Ixodes ricinus (1% (Table 11)), the pest or weed control at 1 % was determined as 86%.

Consider `Cc1cc2c(cc1C)CC(C)(CO)C2` [(2,5,6-trimethyl-2,3-dihydro-1H-inden-2-yl)methanol], for which the pest or weed control at 0.0016 % in the experiment on Ixodes ricinus (0.0016% (Table 11)) turned out to be 17%. In addition, the pest or weed control at 0.04 % in the experiment with Ixodes ricinus (0.04% (Table 11)) is 38%. In the experiment on Ixodes ricinus (1% (Table 11)), the pest or weed control at 1 % turned out to be 77%.

For `CC(=O)OCC1(C)Cc2ccccc2C1` [(2-methyl-2,3-dihydro-1H-inden-2-yl)methyl acetate], the pest or weed control at 0.04 % with Ixodes ricinus (0.04% (Table 10)) was found to be 25%. The pest or weed control at 0.2 % with Ixodes ricinus came to 58%. In addition, the pest or weed control at 1 % in the experiment with Ixodes ricinus (1% (Table 10)) worked out at 100%.

As to `CC1OC(C)C2Cc3ccccc3C2O1` (stereo not shown) [ingredient #5, 2,4-dimethyl-4,4a,5,9b-tetrahydroindeno[1,2-d][1,3]dioxine], the “percentage of ticks being affected” value in the experiment with Ixodes ricinus (0.00032% (Table 9)) is on record as 0%; with Ixodes ricinus (0.00071% (Table 9)), 0%; in the experiment with Ixodes ricinus (0.0016% (Table 9)), 17%; with Ixodes ricinus (0.00357% (Table 9)) it was 0%; with Ixodes ricinus (0.0053% (Table 9)), 0%; in the experiment with Ixodes ricinus (0.008% (Table 9)) it was 0%. Besides, the “percentage of ticks being affected” value in the experiment on Ixodes ricinus (0.0119% (Table 9)) is recorded as 0%; with Ixodes ricinus (0.0178% (Table 9)) it was 8%; in the experiment with Ixodes ricinus (0.0267% (Table 9)), 0%; in the experiment on Ixodes ricinus (0.04% (Table 9)), 15%; with Ixodes ricinus (0.0598% (Table 9)), 0%; in the experiment on Ixodes ricinus (0.089% (Table 9)) it was 7%. The “percentage of ticks being affected” value is 38% with Ixodes ricinus (0.2% (Table 9)), 71% in the experiment with Ixodes ricinus (0.447% (Table 9)) and 62% in the experiment with Ixodes ricinus (1% (Table 9)).

On to “(2,5-dimethyl-2-indanyl)methyl formate)methanol”, for which the “percentage of ticks affected on the Warm Plate” value in the experiment with Ixodes ricinus (0.0016% (Table 11)) is on record as 0%; with Ixodes ricinus (0.04% (Table 11)), 15%; with Ixodes ricinus (1% (Table 11)), 100%.
